Measured values: ChEMBL document CHEMBL3046861, “QSAR STUDIES ON ADENOSINE KINASE INHIBITORS” (Med Chem Res, 2004)

Target: Adenosine kinase (Homo sapiens) (UniProt P55263)
Sequence (P55263 2-362 limits assumed): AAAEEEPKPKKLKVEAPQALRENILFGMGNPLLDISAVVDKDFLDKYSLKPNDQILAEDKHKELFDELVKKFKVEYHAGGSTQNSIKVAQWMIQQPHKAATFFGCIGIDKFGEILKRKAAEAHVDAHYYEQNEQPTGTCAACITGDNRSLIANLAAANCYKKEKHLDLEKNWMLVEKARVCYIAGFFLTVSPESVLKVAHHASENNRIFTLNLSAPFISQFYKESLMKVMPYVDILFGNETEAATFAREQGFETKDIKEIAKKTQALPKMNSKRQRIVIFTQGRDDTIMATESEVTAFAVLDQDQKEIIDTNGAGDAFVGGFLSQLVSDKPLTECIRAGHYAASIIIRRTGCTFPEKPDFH
Description: Inhibition of adenosine kinase (unknown origin)

| logIC50 | Compound |
| --- | --- |
| -1 | C=C[C@H]1O[C@@H](n2cc(I)c3c(N)ncnc32)[C@H](O)[C@@H]1O |
| 0.0792 | CNc1ncnc2c1c(I)cn2[C@@H]1O[C@H](C)[C@@H](O)[C@H]1O |
| 0.0792 | COC[C@H]1O[C@@H](n2cc(I)c3c(N)ncnc32)[C@H](O)[C@@H]1O |
| -0.301 | Nc1ncnc2c1c(Br)cn2[C@@H]1OC[C@@H](O)[C@H]1O |
| -1.46 | [N-]=[N+]=NC[C@H]1O[C@@H](n2cc(I)c3c(N)ncnc32)[C@H](O)[C@@H]1O |
| -3.7 | NC[C@H]1O[C@@H](n2cc(Br)c3c(N)ncnc32)[C@H](O)[C@@H]1O |
| -2.52 | C[C@H]1O[C@@H](n2cc(I)c3c(Cl)ncnc32)[C@H](O)[C@@H]1O |
| -1.35 | CSc1ncnc2c1c(I)cn2[C@@H]1O[C@H](C)[C@@H](O)[C@H]1O |
| -1 | [N-]=[N+]=NC[C@H]1O[C@@H](n2cc(Br)c3c(Cl)ncnc32)[C@H](O)[C@@H]1O |
| -1.16 | CSc1cn([C@@H]2O[C@H](C)[C@@H](O)[C@H]2O)c2ncnc(Cl)c12 |
| -1.22 | CC[C@H]1O[C@@H](n2cc(I)c3c(N)ncnc32)[C@H](O)[C@@H]1O |
| -1.2 | [N-]=[N+]=NC[C@H]1O[C@@H](n2cc(Br)c3c(N)ncnc32)[C@H](O)[C@@H]1O |

Further lines, the compound ahead of its results:

| Compound | logIC50 |
| --- | --- |
| NC[C@H]1O[C@@H](n2cc(I)c3c(Cl)ncnc32)[C@H](O)[C@@H]1O | -4 |
| Nc1ncnc2c1c(Br)cn2[C@@H]1O[C@H](CO)[C@@H](O)[C@H]1O | -0.921 |
| C[C@H]1O[C@@H](n2cc(I)c3c(S)ncnc32)[C@H](O)[C@@H]1O | 0.813 |
| [N-]=[N+]=NC[C@H]1O[C@@H](n2cc(I)c3c(Cl)ncnc32)[C@H](O)[C@@H]1O | -2.05 |
| NC[C@H]1O[C@@H](n2cc(I)c3c(N)ncnc32)[C@H](O)[C@@H]1O | -3.22 |
| Nc1ncnc2c1c(Cl)cn2[C@@H]1O[C@H](CO)[C@@H](O)[C@H]1O | -0.678 |
| C[C@H]1O[C@@H](n2cc(Br)c3c(Cl)ncnc32)[C@H](O)[C@@H]1O | -1.3 |
| OC[C@H]1O[C@@H](n2cc(I)c3c(Cl)ncnc32)[C@H](O)[C@@H]1O | -1.62 |
| CSc1cn([C@@H]2O[C@H](C)[C@@H](O)[C@H]2O)c2ncnc(N)c12 | 0.13 |
| C[C@H]1O[C@@H](n2cc(C#N)c3c(N)ncnc32)[C@H](O)[C@@H]1O | -0.509 |
| Cc1cn([C@@H]2O[C@H](C)[C@@H](O)[C@H]2O)c2ncnc(Cl)c12 | -0.272 |
